# Molecular target: T1, TRPC4 (Homo sapiens, UniProt Q9UBN4)
# T1 construct: expressed in transfected cells; host or cells: HEK-TREx (HekTrex-293), cell line ICLN-1694, tetracycline-induced
# T1 sequence (Q9UBN4 1-982 isoform Q9UBN4-5): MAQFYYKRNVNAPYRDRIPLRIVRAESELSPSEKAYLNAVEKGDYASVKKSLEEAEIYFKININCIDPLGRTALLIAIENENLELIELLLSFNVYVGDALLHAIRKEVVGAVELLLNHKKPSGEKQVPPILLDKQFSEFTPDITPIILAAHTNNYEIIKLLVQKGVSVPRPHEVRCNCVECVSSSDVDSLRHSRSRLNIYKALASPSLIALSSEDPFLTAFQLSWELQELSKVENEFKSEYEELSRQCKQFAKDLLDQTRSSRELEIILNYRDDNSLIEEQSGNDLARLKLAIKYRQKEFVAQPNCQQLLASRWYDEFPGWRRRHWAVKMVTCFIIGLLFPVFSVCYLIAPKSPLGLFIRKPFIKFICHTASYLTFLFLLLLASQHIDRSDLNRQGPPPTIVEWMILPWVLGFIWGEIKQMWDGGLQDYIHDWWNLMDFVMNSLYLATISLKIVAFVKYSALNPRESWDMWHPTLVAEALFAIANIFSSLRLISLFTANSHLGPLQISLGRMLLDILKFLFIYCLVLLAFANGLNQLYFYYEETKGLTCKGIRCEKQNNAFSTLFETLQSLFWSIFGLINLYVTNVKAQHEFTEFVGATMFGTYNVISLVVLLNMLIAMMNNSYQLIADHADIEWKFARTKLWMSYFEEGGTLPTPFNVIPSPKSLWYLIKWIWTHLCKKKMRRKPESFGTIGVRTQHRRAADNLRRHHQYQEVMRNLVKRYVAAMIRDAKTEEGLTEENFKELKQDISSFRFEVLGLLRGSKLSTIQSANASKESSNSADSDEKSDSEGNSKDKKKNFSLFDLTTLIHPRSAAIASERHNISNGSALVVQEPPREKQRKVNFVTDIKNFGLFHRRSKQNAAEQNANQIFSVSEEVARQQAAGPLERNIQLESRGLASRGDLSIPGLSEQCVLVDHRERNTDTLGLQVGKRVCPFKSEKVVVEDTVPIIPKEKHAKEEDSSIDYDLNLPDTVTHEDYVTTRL
# Assay: TRPC4 FLIPR Assay (HEK-TREx hTRPC4, Englerin A stimulation)
# Type: cell-based
# Conditions: not given
# Procedure: FLIPR Assay Buffer (Earls Balanced Salt Solution (EBSS)) was prepared as follows:
# 10-point dose response curves were generated using the Echo-550 acoustic dispenser. Compound source plates were made by serially diluting compound stocks to create 10 mM, 1 mM, and 0.1 mM solutions in DMSO into Echo certified LDV plates. The Echo then serially spotted 100% DMSO stock solutions into source dose response plates to generate a 4-fold dilution scheme. 100% DMSO was added to the spotted dose response plates to bring the final volume to 5 μl. […] of the dose response stock plate was then spotted into pre-incubation and stimulation assay plates. […] of pre-incubation buffer and 100 μl of stimulation buffer was then added to the plates resulting in a final assay test concentration range of 30 μM to 0.0001 μM with a final DMSO concentration of 0.3%.
# Experimental Methods: Cells expressing TRPC4 were plated onto 384 well, black pdl-coated microplates and maintained in TRPC4 growth media the day prior to use for experiments. TRPC4 expression was induced by the application of 1 μg/ml tetracycline at the time of plating. […] Cells were incubated at room temperature, protected from light, for 60-90 minutes. After the incubation period, the dye was removed and replaced with 10 μl of EBSS. Cell, pre-incubation and stimulation plates were loaded onto the FLIPR-II and the assay was initiated. The FLIPR measured a 10 second baseline and then added 10 μl of 2× compounds (or controls). Changes in fluorescence were monitored for an additional 5 minutes. After a 5 minute pre-incubation, 20 μl of 2× Englerin A (with 1× compound or controls) was added to the cell plate. The final Engerlin A stimulation concentration in the assay is 100 nM. After the Englerin A addition, changes in fluorescence were monitored for an additional 5 minutes.
# Test Agent Effect: Test agent modulation of TRPC4 calcium response was determined as follows. After the Englerin A, fluorescence was monitored for a 5 minute period. The maximum relative fluorescence response (minus the control response of […] of the control inhibitor) was captured and exported from the FLIPR. Test agent effect was calculated as % inhibition using the following formula: % inhibition=((RFU TEST AGENT−Plate Average RFU REF INHIB)/(Plate Average RFU CONTROL−Plate Average RFU REF INHIB))×100
row,SMILES,IC50 [nM]
1,O=C1CN(c2cn[nH]c(=O)c2Cl)CCN1Cc1cc(F)ccc1C(F)(F)F,0.01 to 1000

# Same assay, conditions: Table 8; HEK-TREx hTRPC4; read-out: TRPC4 FLIPR IC50
row,SMILES,IC50 [nM]
1,C[C@@H](c1ccccc1)n1nnc2c1CCN(c1cn[nH]c(=O)c1Cl)C2,1000 to 5000
2,Cc1ccccc1CN1C[C@@H](C)N(c2cn[nH]c(=O)c2Cl)CC1=O,5000 to 10000
3,O=c1[nH]ncc(N2CCc3c(ncn3Cc3ccccc3OC(F)(F)F)C2)c1Cl,0.01 to 1000
4,CCc1ncccc1CN1CCN(c2cn[nH]c(=O)c2Cl)CC1,0.01 to 1000
5,CCc1ncccc1CN1CCN(c2cn[nH]c(=O)c2Cl)C(C)C1 (stereo not drawn),5000 to 10000
6,O=C1CN(c2cn[nH]c(=O)c2Cl)CCN1Cc1ccccc1Cl,0.01 to 1000
7,O=C1CN(c2cn[nH]c(=O)c2Cl)CCN1Cc1ccccc1C(F)F,0.01 to 1000
8,CCc1ncccc1CN1CCN(c2cn[nH]c(=O)c2C#N)CC1,5000 to 10000
9,CCc1ccccc1Cn1cnc2c1CCN(c1cn[nH]c(=O)c1Cl)C2,0.01 to 1000
10,C[C@@H](c1ccccc1C(F)(F)F)n1nnc2c1CCN(c1cn[nH]c(=O)c1C#N)C2,0.01 to 1000
11,CCc1nccc(C)c1CN1CCN(c2cn[nH]c(=O)c2Cl)CC1,1000 to 5000
12,CC(c1ccc(F)cc1C(F)F)n1[nH]c(=O)c2c1CCN(c1cn[nH]c(=O)c1Cl)C2 (stereo not drawn),0.01 to 1000
13,Cc1ccccc1CN1CCN(c2cn[nH]c(=O)c2Br)CC1=O,0.01 to 1000
14,Cc1ccccc1[C@@H](C)N1CCN(c2cn[nH]c(=O)c2Cl)CC1=O,0.01 to 1000
15,C[C@@H](c1ccc(F)cc1C(F)(F)F)n1nnc2c1CCN(c1cn[nH]c(=O)c1Cl)C2,0.01 to 1000
16,Cc1ccccc1Cn1cnc2c1CCN(c1cn[nH]c(=O)c1Cl)C2 [drawing 938],0.01 to 1000
17,O=c1[nH]ncc(N2CCc3c(ncn3Cc3ccccc3)C2)c1Cl [drawing 939],0.01 to 1000
18,C[C@H](c1ccccc1)n1cnc2c1CCN(c1cn[nH]c(=O)c1Cl)C2 [drawing 940],0.01 to 1000
19,O=c1[nH]ncc(N2CCc3c(ncn3Cc3ccc(F)cc3C(F)(F)F)C2)c1Cl [drawing 942],0.01 to 1000
20,O=c1[nH]ncc(N2CCc3c(ncn3Cc3ccccc3C(F)(F)F)C2)c1Cl [drawing 944],0.01 to 1000

row,SMILES,IC50 [nM]
1,O=c1[nH]ncc(N2CCc3c(nnn3Cc3ccccc3C(F)(F)F)C2)c1Cl [drawing 948],0.01 to 1000
2,O=c1[nH]ncc(N2CCc3c(ncn3Cc3ccccc3C(F)(F)F)C2)c1Br [drawing 950],0.01 to 1000
3,O=c1[nH]ncc(N2CCc3c(cnn3Cc3ccc(F)cc3C(F)(F)F)C2)c1Cl [drawing 951],0.01 to 1000
4,O=c1[nH]ncc(N2CCc3c(ncn3Cc3ccccc3C(F)F)C2)c1Cl [drawing 952],0.01 to 1000
5,O=c1[nH]ncc(N2CCc3c(ncn3-c3ccccc3C(F)(F)F)C2)c1Cl [drawing 954],1000 to 5000
6,N#Cc1c(N2CCc3c(ncn3Cc3ccccc3C(F)(F)F)C2)cn[nH]c1=O [drawing 956],1000 to 5000
7,CCc1cc(F)ccc1Cn1cnc2c1CCN(c1cn[nH]c(=O)c1Cl)C2 [drawing 958],0.01 to 1000
8,N#Cc1c(N2CCc3c(nnn3Cc3ccccc3C(F)(F)F)C2)cn[nH]c1=O [drawing 959],1000 to 5000
9,O=c1[nH]ncc(N2CCc3c(ncn3Cc3ccc(F)cc3C(F)F)C2)c1Cl [drawing 960],0.01 to 1000
10,C[C@@H](c1ccccc1C(F)(F)F)n1nnc2c1CCN(c1cn[nH]c(=O)c1Cl)C2 [drawing 962],0.01 to 1000
11,COCc1ccccc1Cn1cnc2c1CCN(c1cn[nH]c(=O)c1Cl)C2 [drawing 965],0.01 to 1000
12,COCc1ncccc1Cn1cnc2c1CCN(c1cn[nH]c(=O)c1Cl)C2 [drawing 966],1000 to 5000
13,C[C@@H]1Cc2c(nnn2[C@@H](C)c2ccccc2C(F)(F)F)CN1c1cn[nH]c(=O)c1Cl [drawing 968],0.01 to 1000
14,C[C@H](c1ccccc1C(F)(F)F)n1nnc2c1CCN(c1cn[nH]c(=O)c1Cl)[C@H]2C [drawing 970],0.01 to 1000
15,CCS(=O)(=O)c1nc2c(n1Cc1ccccc1C(F)(F)F)CCN(c1cn[nH]c(=O)c1Cl)C2 [drawing 971],0.01 to 1000
16,O=c1[nH]ncc(N2CCc3c(c(=O)[nH]n3Cc3ccccc3C(F)(F)F)C2)c1Cl [drawing 972],0.01 to 1000
17,C[C@@H]1Cc2c(nnn2[C@@H](C)c2ccc(F)cc2C(F)(F)F)CN1c1cn[nH]c(=O)c1Cl [drawing 974],0.01 to 1000
18,CN1CCN(Cc2nn(Cc3ccccc3C(F)F)c3c2CN(c2cn[nH]c(=O)c2Cl)CC3)C(=O)C1 [drawing 975],0.01 to 1000
19,C[C@H](c1ccc(F)cc1C(F)(F)F)n1nnc2c1CCN(c1cn[nH]c(=O)c1Cl)[C@H]2C [drawing 976],0.01 to 1000
20,C[C@H](c1ccccc1C(F)F)n1nnc2c1CCN(c1cn[nH]c(=O)c1Cl)C2 [drawing 977],0.01 to 1000

row,SMILES,IC50 [nM]
1,C[C@@H](c1ccccc1C(F)F)n1nnc2c1CCN(c1cn[nH]c(=O)c1Cl)C2 [drawing 980],0.01 to 1000
2,C[C@@H](c1ccc(F)cc1C(F)F)n1nnc2c1CCN(c1cn[nH]c(=O)c1Cl)C2 [drawing 981],0.01 to 1000
3,CNC(=O)c1nn([C@H](C)c2ccccc2C(F)F)c2c1CN(c1cn[nH]c(=O)c1Cl)CC2 [drawing 982],0.01 to 1000
4,CC(c1ccc(F)cc1C(F)F)n1nc(C(N)=O)c2c1CCN(c1cn[nH]c(=O)c1Cl)C2 (stereo not drawn) [drawing 983],0.01 to 1000
5,CNC(=O)c1nn(Cc2ccc(F)cc2C(F)F)c2c1CN(c1cn[nH]c(=O)c1Cl)CC2 [drawing 985],0.01 to 1000
6,C[C@@H]1Cc2c(c(C(N)=O)nn2Cc2ccccc2C(F)(F)F)CN1c1cn[nH]c(=O)c1Cl [drawing 986],0.01 to 1000
7,C[C@@H](c1ccccc1C(F)(F)F)N1CCN(c2cn[nH]c(=O)c2Cl)CC1=O [drawing 987],0.01 to 1000
8,COC[C@H](c1ccccc1C(F)(F)F)n1cnc2c1CCN(c1cn[nH]c(=O)c1Cl)C2 [drawing 988],0.01 to 1000
9,C[C@H](c1ccccc1C(F)(F)F)n1nc(C(N)=O)c2c1CCN(c1cn[nH]c(=O)c1Cl)C2 [drawing 990],0.01 to 1000
10,C[C@@H](c1cccnc1CC(F)F)n1nnc2c1CCN(c1cn[nH]c(=O)c1Cl)C2 [drawing 991],0.01 to 1000
11,C[C@H](c1ccc(F)cc1C(F)(F)F)N1C[C@@H](C)N(c2cn[nH]c(=O)c2Cl)CC1=O [drawing 992],0.01 to 1000
12,C[C@@H](c1ccc(F)cc1C(F)(F)F)N1CCN(c2cn[nH]c(=O)c2Cl)CC1=O [drawing 993],0.01 to 1000
13,O=c1[nH]ncc(N2CCc3c(nnn3Cc3ccc(F)cc3CC(F)(F)F)C2)c1Cl [drawing 994],0.01 to 1000
14,C[C@H](c1ccccc1Cl)n1nnc2c1CCN(c1cn[nH]c(=O)c1Cl)C2 [drawing 995],0.01 to 1000
15,CNC(=O)c1nc2c(n1Cc1ccccc1C(F)(F)F)CCN(c1cn[nH]c(=O)c1Cl)C2 [drawing 996],0.01 to 1000
16,NC(=O)c1nc2c(n1Cc1ccccc1C(F)(F)F)CCN(c1cn[nH]c(=O)c1Cl)C2 [drawing 997],0.01 to 1000
17,O=c1[nH]ncc(N2CCc3c(ncn3Cc3ccc(F)cc3Cl)C2)c1Cl [drawing 998],0.01 to 1000
18,O=c1[nH]ncc(N2CCc3c(ncn3Cc3ccccc3Cl)C2)c1Cl [drawing 1000],0.01 to 1000
19,C[C@@H](c1ccccc1Cl)n1nnc2c1CCN(c1cn[nH]c(=O)c1Cl)C2 [drawing 1001],0.01 to 1000
